Data reported in ChEMBL document CHEMBL1147323, “The effect of ginsenoside-Rb2 on nitrogen balance” (1989).

Columns and labels:
Rattus norvegicus [1] = assay: Effect on nitrogen balance in Wistar rat diabetic model assessed as residual urinary nitrogen at 10 mg/day, ip for 6 days measured 6 hrs after last dose relative to non-diabetic control; assay type: functional, Urine
Rattus norvegicus [2] = assay: Effect on nitrogen balance in Wistar rat diabetic model assessed as residual urinary nitrogen at 10 mg/day, ip for 6 days measured 6 hrs after last dose relative to diabetic control; assay type: functional, Urine
Rattus norvegicus [3] = assay: Effect on nitrogen balance in Wistar rat diabetic model assessed as residual fecal nitrogen at 10 mg/day, ip for 6 days measured 6 hrs after last dose relative to non-diabetic control; assay type: functional, Feces
Rattus norvegicus [4] = assay: Effect on nitrogen balance in Wistar rat diabetic model assessed as residual fecal nitrogen at 10 mg/day, ip for 6 days measured 6 hrs after last dose relative to diabetic control; assay type: functional, Feces
Rattus norvegicus [5] = assay: Effect on nitrogen balance in Wistar rat diabetic model assessed as absorbed nitrogen at 10 mg/day, ip for 6 days measured 6 hrs after last dose relative to non-diabetic control; assay type: functional
Rattus norvegicus [6] = assay: Effect on nitrogen balance in Wistar rat diabetic model assessed as absorbed nitrogen at 10 mg/day, ip for 6 days measured 6 hrs after last dose relative to diabetic control; assay type: functional
Rattus norvegicus [7] = assay: Effect on nitrogen balance in Wistar rat diabetic model assessed as retained nitrogen at 10 mg/day, ip for 6 days measured 6 hrs after last dose relative to non-diabetic control; assay type: functional
Rattus norvegicus [8] = assay: Effect on nitrogen balance in Wistar rat diabetic model assessed as retained nitrogen at 10 mg/day, ip for 6 days measured 6 hrs after last dose relative to diabetic control; assay type: functional

Question: With CC(C)=CCC[C@](C)(O[C@@H]1O[C@H](CO[C@@H]2OC[C@H](O)[C@H](O)[C@H]2O)[C@@H](O)[C@H](O)[C@H]1O)[C@H]1CC[C@]2(C)[C@@H]1[C@H](O)C[C@@H]1[C@@]3(C)CC[C@H](O[C@@H]4O[C@H](CO)[C@@H](O)[C@H](O)[C@H]4O[C@@H]4O[C@H](CO)[C@@H](O)[C@H](O)[C@H]4O)C(C)(C)[C@@H]3CC[C@]12C [GINSENOSIDE RB2] as the molecule, how does the Activity (Rattus norvegicus [1]) read?
Answer: 223%

Question: What about the Activity (Rattus norvegicus [2]) of the same molecule?
Answer: 75%

Question: And the Activity (Rattus norvegicus [3])?
Answer: 186%

Question: And the Activity (Rattus norvegicus [4])?
Answer: 93%

Question: What about the Activity (Rattus norvegicus [5]) of the same molecule?
Answer: 225%

Question: What about the Activity (Rattus norvegicus [6]) of the same molecule?
Answer: 104%

Question: What about the Activity (Rattus norvegicus [7]) of the same molecule?
Answer: 313%

Question: And the Activity (Rattus norvegicus [8])?
Answer: 415%
